The source of these data is patent US20110263647A1 (AMGEN INC., priority 2009, published 2011).

Read-outs that look alike come from different tables or passages of the source.

One series concerns the target T1, CYP2D6 (Homo sapiens, UniProt P10635).
T1 construct: tissue XenoTech LLC Lot 0610351; host or cells: pooled human liver microsomes
Nature of the series: CYP2D6 inhibition assay (bufuralol, pooled human liver microsomes). Particulars: pH 7.4, probe bufuralol (5 μM), test compound 3 μM, human liver microsomes 0.25 mg/mL. It is filed as in vitro ADME. How it is done:
(§1) Midazolam was obtained from BD Gentest (Waltham, Mass.); 1′ hydroxy midazolam and 1-hydroxy bufuralol maleate were obtained from Ultrafine Chemicals (Manchester, UK); bufuralol HCl, ketoconazole, quinidine, potassium phosphate, and NADPH were obtained from Sigma (St. Louis, Mo.). Test compounds were prepared at 10 mM concentration in DMSO (Mallinckrodt Inc., St. Louis, Mo.). NADPH was prepared at 10 mM concentration in a pH 7.4 buffer (8.3 mg/mL 66.7 mM potassium phosphate). Midazolam was prepared at 1 mM concentration in deionized water (Amgen, Thousand Oaks, Calif.), and bufuralol was prepared at 2 mM concentration in deionized water. A stock solution of ketoconazole was prepared at 37 mM concentration in DMSO, and quinidine was prepared at 500 uM concentration in DMSO. Formic acid in acetonitrile (0.05%, ACN) was used as a quench solution (Sigma-Aldrich, St. Louis, Mo.). All solvents used for LC/MS were of chromatographic grade. Pooled human liver microsomes (Lot 0610351) were purchased from XenoTech LLC, (Lenexa, Kans.).
Pooled human liver microsomes (0.25 mg/mL) were incubated at 37° C. in a phosphate buffer (66.7 mM potassium phosphate at pH 7.4) with the selective CYP2D6 substrate bufuralol at a concentration of 5 μM in the presence and absence of test compound (3 μM). The reaction was started with the addition of NADPH (1 mM final concentration). The reaction was stopped after 10 minutes by addition of formic acid in acetonitrile. 1-Hydroxybufuralol metabolite formation was measured by an HPLC MS detection method (mobile phases for HPLC were: 0.1% AcOH in 5% MeOH, and 0.1% AcOH in 95% MeOH; the HPLC column was an Onyx Monolithic C18 CHO-7645 HPLC column from Phenomenex; Shimadzu LC-10ADVP equipped Biomek FX Liquid handling system and CTC Analytics PAL well auto-sampler; Mass spectrometer: Applied Biosystems API 3000 using Analyst 1.4.1 software). Inhibition was determined by the ratio of the amount of 1-hydroxy bufuralol metabolite formed metabolite in the presence of test compound to the amount of metabolite in the absence of test compound.

The target in another series is T2, CYP3A4 (Homo sapiens, UniProt P08684).
T2 construct: tissue XenoTech LLC Lot 0610351; host or cells: pooled human liver microsomes
The experiment in a line: CYP3A4 inhibition assay (midazolam, pooled human liver microsomes). It is filed as in vitro ADME. Particulars: pH 7.4, probe midazolam (2.5 μM), test compound 3 μM, human liver microsomes 0.1 mg/mL. As for the experimental part:
as §1
Pooled human liver microsomes (0.1 mg/mL) were incubated at 37° C. in a phosphate buffer (66.7 mM potassium phosphate at pH 7.4) with the selective CYP3A substrate midazolam at a concentration of 2.5 μM in the presence and absence of test compound (3 μM). The reaction was started with the addition of NADPH (1 mM final concentration). The reaction was stopped after 10 minutes by addition of formic acid in acetonitrile. 1′-Hydroxymidazolam metabolite formation was measured by an HPLC MS detection method (mobile phases were 0.1% AcOH in 5% MeOH, and 0.1% AcOH in 95% MeOH; the HPLC column was an Onyx Monolithic C18 CHO-7645 HPLC column obtained from Phenomenex; Shimadzu LC-10ADVP equipped Biomek FX Liquid handling system and CTC Analytics PAL well auto-sampler; Mass spectrometer: Applied Biosystems API 3000 using Analyst 1.4.1 software). Inhibition was determined by the ratio of the amount of 1′-hydroxy midazolam metabolite formed in the presence of test compound to the amount of metabolite found in the absence of test compound Inhibition was measured relative to the rate of formation of 1′-hydroxy midazolam incubated at 2.5 μM without test compound.
A general note: Microsomes from liver hold many membrane-bound enzymes, among them those of drug oxidation.

Series [1] is described as follows: In vivo pharmacokinetics, IV and oral gavage. Set-up: species or system male Sprague-Dawley rats. Particulars: rat. How it is done: In vivo pharmacokinetic parameters were determined by measuring systemic plasma exposure in male Sprague-Dawley rats (Charles River Laboratories or Taconic, Oxnard, Calif.) by intravenous administration (N=3 fed rats: 2 mg/kg tail vein injection in DMSO) and oral gavage (N=3 fasted rats: 5 mg/kg in 1% Tween 80-2% HPMC-97% deionized water-pH 2.0 vehicle) (Comparative Example 18′ was only dosed IV and at 0.5 mg/kg). DMSO was obtained from Mallinckrodt Inc.; Tween 80 was obtained from Croda; HPMC is Methocel E50 Premium LV, obtained from Dow Excipients. Following oral administration, blood was drawn (250 μL) at 0.25, 0.5, 1, 2, 4, 6, 8, 12, and 16 hours. Following iv administration, blood was drawn (250 μL) at 0.083, 0.25, 0.5, 1, 2, 4, 6, 8, and 16 hours. Blood samples were drawn using a Culex® In Vivo Sampling System (BASi) and collected in BD Microtainer® tubes containing Lithium Heparin (BD). Plasma was obtained by centrifugation of blood at 14000 g and 2-8° C. for five minutes using an Eppendorf 5417R Centrifuge System. Plasma samples were mixed with 2× volume of acetonitrile (Sigma-Aldrich, St. Louis, Mo.). The mixture was stirred briefly using a vortex mixer and then centrifuged at 2867 g for 5 minutes in a Beckman Coulter Allegra 25R equipped with a Type S5700 rotor. The supernatant was removed and diluted 2× with mobile phase A (5/94.9/0.1 v/v/v MeOH/water/AcOH). Plasma concentrations were determined using liquid chromatography/tandem mass spectrometry, with electrospray ionization (ESI) and multiple reaction monitoring in the positive ion mode (Sciex API 3000 mass spectrometer connected to a Shimadzu LC-20AD pump and a LEAP PAL autosampler. Typical conditions used for HPLC were: mobile phase A=5/94.9/0.1 v/v/v MeOH/water/AcOH and mobile phase B=95/4.9/0.1 v/v/v MeOH/water/AcOH; HPLC column was a Varian MonoChrom C18.3μ for 2×30 mm and 51.1 for 2×50 mm) Instrument response was calibrated by a standard curve over 0.1-2000 ng/mL concentration range, and the lower limit of quantitation was 0.1-2.5 ng/mL. Peak areas were integrated on a Windows 2000 computer using the Sciex program Analyst® (Version 1.4.1). Following peak area integration, the data were exported to the software package (Watson® Non-GLP PROD (Version 7.0.0.01, Thermo Electron Corp., Waltham, Mass.)), where concentrations were determined by a weighted linear regression of peak area versus the nominal concentrations of the calibration standards. Calculations were performed on unrounded numbers. The Watson® Non-GLP PROD software was used to determine precision and accuracy for the calibration standards. Noncompartmental analysis of plasma concentration data was used to generate PK parameters such as clearance (CL, L/h/kg), volume of distribution (Vss, L/kg), area under the curve (AUC, ng·h/mL) and secondary parameters such as half-life (t1/2, h) and oral bioavailability (% F, %). This was done using WinNonlin Enterprise software (Version 5.1.1, from Pharsight Corp., Mountain View, Calif.). References for pharmacokinetic analysis include: Gabrielsson and Weiner (1997) Pharmacokinetic and Pharmacodynamic Data Analysis Concepts and Applications, 2nd ed., Swedish Pharmaceutical Press, Stockholm; Gibaldi and Perrier (1982) Pharmacokinetics, 2nd ed., Marcel Dekker, New York. Rowland and Tozer (1995) Clinical Pharmacokinetics: Concepts and Applications, 3rd ed., Lippincott Williams & Wilkins, Philadelphia.

T1 sequence (P10635 whole entry): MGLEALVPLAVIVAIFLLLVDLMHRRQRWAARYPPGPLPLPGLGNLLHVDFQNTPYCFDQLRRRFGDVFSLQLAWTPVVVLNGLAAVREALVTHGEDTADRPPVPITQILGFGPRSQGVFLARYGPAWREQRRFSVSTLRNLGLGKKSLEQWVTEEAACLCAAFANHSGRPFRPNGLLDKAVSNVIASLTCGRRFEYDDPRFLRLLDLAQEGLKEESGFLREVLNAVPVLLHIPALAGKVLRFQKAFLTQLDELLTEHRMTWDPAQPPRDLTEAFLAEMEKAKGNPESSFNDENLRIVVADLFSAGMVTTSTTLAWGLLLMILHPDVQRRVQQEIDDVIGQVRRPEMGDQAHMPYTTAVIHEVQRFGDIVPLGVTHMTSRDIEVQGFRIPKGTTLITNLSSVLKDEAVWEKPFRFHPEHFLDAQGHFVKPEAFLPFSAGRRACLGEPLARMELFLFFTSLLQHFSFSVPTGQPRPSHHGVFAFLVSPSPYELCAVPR
T2 sequence (P08684 whole entry): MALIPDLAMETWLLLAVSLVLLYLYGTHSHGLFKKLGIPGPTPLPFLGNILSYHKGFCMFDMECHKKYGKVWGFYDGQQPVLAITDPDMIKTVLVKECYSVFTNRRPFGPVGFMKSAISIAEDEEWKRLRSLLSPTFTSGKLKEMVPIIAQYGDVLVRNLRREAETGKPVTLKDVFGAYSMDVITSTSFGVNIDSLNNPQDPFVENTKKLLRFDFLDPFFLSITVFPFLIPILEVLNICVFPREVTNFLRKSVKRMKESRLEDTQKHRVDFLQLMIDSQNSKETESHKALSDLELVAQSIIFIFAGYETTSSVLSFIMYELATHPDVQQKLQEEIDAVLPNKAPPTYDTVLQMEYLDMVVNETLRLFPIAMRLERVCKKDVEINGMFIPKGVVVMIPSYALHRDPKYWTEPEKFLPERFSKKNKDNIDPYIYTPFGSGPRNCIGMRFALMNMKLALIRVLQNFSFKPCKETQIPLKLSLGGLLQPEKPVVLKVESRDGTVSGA

As a reminder, the inhibition is the percentage by which the read-out fell short of the control. The low end stands for a weak effect, the high end for a strong effect. Broadly, the Cmax is the peak of the concentration-time curve. For `N[C@H](CNc1ncc(-c2ccc3cnccc3c2)s1)CN1CCC(C(F)(F)F)CC1` [Comparative Example 25′, reference compound], the inhibition at 10 min, 3 μM against CYP2D6 came to 81%; against CYP3A4, 94%. Further, the FPO in series [1] (Table 5, PO 5 mg/kg, IV 2 mg/kg) amounted to 146%. Also, the “Fpo (%)” value in series [1] (Table 6, PO 5 mg/kg, IV 2 mg/kg) is 65%. Also, the clearance in series [1] (male, Sprague-Dawley, plasma, IV 2 mg/kg) is 85.6 mL/min/kg. The AUC(0-t) is 359 ng·h/mL in series [1] (male, Sprague-Dawley, plasma, IV 2 mg/kg, read-out: IV AUClast) and 1310 ng·h/mL in series [1] (male, Sprague-Dawley, plasma, PO 5 mg/kg, read-out: Oral AUClast). Besides, the Cmax in series [1] (male, Sprague-Dawley, plasma, IV 2 mg/kg, read-out: IV Cmax) amounted to 284 ng/mL; in series [1] (male, Sprague-Dawley, plasma, PO 5 mg/kg, read-out: Oral Cmax) it was 153 ng/mL. Further, the Vd in series [1] (male, Sprague-Dawley, plasma, IV 2 mg/kg, read-out: Vss) amounted to 8.78 L/kg.
